Measurements taken from patent publication US20230075368A1, “IDENTIFICATION OF AN EGFR-BIN3 PATHWAY THAT ACTIVELY SUPPRESSES INVASION AND REDUCES TUMOR SIZE IN GLIOBLASTOMA” (The United States Govemment as represented by the …, priority 2020, published 2023).

Legend:
GBM12 = test: Cignal 45-Pathway Reporter Array; format: cell-based, human; conditions: tofacitinib 1 μM, 24 hours
EMP1 = test: Western blot of EMP1; format: cell-based, human; conditions: EGF 50 ng/ml, 24 hours; GBM12 and GBM6
Method: Whole protein extracts from cells or tumor tissues were analyzed by western blot as previously described (Altieri et al. (2015) Surg. Technol. Int 27: 297-302). Mayo PDX cells were serum starved overnight. Following treatment for specific time, cells were harvested and lysed. The human glioblastoma tissues were ground in liquid nitrogen and then were lysed. EGFR (06-847) antibody was from Millipore. DOCK7 was from Proteintech (Rosemont, Ill.). pEGFR (2236), STAT3 (12640), pSTAT3 (9145), cdc42(4376), and RhoA (4695) antibodies were from Cell Signaling Technology (Danvers, Mass.). TGFα antibody was from R&D system. BIN3 (sc-514396) and (3-Actin (sc-47778) were from Santa Cruz Biotechnology (Dallas, Tex.).
Referring to FIG. 23A-P, EGFR induced EMP1 overexpression drives invasion and is mediated by Nanog. Specifically, cells were transiently transfected with empty or EGFRwt or EGFRvIII vector for 48 hours, and subjected to Western blot analysis for EGFR, pEGFR, BIN3 and EMP1 (FIG. 23A). Similar experiments were performed in GBM14 (FIG. 23B). […] Similar experiments were performed in GBM14 (FIG. 23E). Efficiency of EMP1 knockdown and EGFR overexpression was confirmed by Western blot analysis (FIG. 23F and FIG. 23G). […] FIG. 23J and FIG. 23K show EMP1 mRNA levels in EGFR and EGFRvIII overexpressing GBM12 and GBM14, measured by RT-PCR. […]

Compound: C[C@@H]1CCN(C(=O)CC#N)C[C@@H]1N(C)c1ncnc2[nH]ccc12 [tofacitinib]
- transcription factor activity (GBM12): upregulates multiple transcription factors

Compound: EGF: Recombinant human EGF (AF-100) from Peprotech; EGFR ligand
- EMP1 level (EMP1): does not affect EMP1 level
